Test results taken from US20250154193A1, “STEROID COMPOUND, AND PREPARATION METHOD THEREFOR AND APPLICATION THEREOF” (CHOLESGEN (SHANGHAI) CO., LTD., priority 2022, published 2025).

Tested on: Ldlr−/− mice
Experiment: AMLN diet-induced fatty liver model: body weight, serum and liver metabolic parameters
Assay type: in vivo
Conditions: 30 mg/kg/day intragastrically, 8 weeks
Description: Animals: Adult male C57BL/6J mice were purchased from Shanghai SLAC, and low-density lipoprotein receptor knockout mice (Ldlr^−/− mice, T001464) were purchased from Jiangsu GemPharmatech Co., Ltd. Mice were housed in an environment free of pathogens, maintained in a 12-hour light/dark cycle, and had free access to water and feed. The vehicle for oral gavage was 0.5% Tween-80, 0.5% methylcellulose, and 0.9% sodium chloride. AMLN feed (AMLN, Dyets) contains 40% (kcal %) fat (80% of which is trans fat), 22% (mass %) fructose, and 2% (mass %) cholesterol.
After drug treatment, mice were fasted for 4 hours before being euthanized, and blood and liver samples were collected. Blood was coagulated and centrifuged at 1,500 g for 10 minutes at 4° C. to obtain the supernatant (i.e., serum). Lipids from liver were extracted using the chloroform/methanol method. The samples were first homogenized and crushed using a Precelly 24 homogenizer, and centrifuged at 16,000 g for 10 minutes at 4° C. The organic phase was transferred to a new tube, dried with nitrogen, and dissolved in ethanol. Total cholesterol and triglyceride levels in blood and liver were measured by cholesterol and triglyceride kits (Shanghai Kehua Bio-Engineering Co., Ltd.), respectively. ALT (LE-M0477, Lai Er Bio-Tech) and AST (LE-M0568, Lai Er Bio-Tech) levels in serum were measured according to the corresponding manufacturer's manuals, using an analytical system from Sysmex Shanghai Ltd.
Male C57BL/6J mice and male Ldlr^−/− mice (TOO1464, Jiangsu GemPharmatech Co., Ltd.) at 8 weeks of age were purchased, grouped, fed with different diets, and treated with different drugs. The mice were randomly divided into 4 groups with 8 to 9 mice in each group: One group consisted of C57BL/6J wild-type mice, which was the chow diet (CD) vehicle control group. The other three groups consisted of Ldlr^−/− knockout mice, including chow diet (CD) vehicle control group, AMLN diet (containing […], 22% fructose, and 2% cholesterol) vehicle control group, and AMLN diet combined with 25-hydroxylanosterol administration group (25-hydroxylano sterol was administered at a concentration of 30 mg/kg/day). The mice in four groups were intragastrically administered once a day, during which the changes in food intake and body weight of the mice in different treatment groups were counted. After 8 weeks, blood and liver samples were collected from the mice to analyze blood lipids, liver lipids, and liver damage phenotypes.
In FIGS. 1 and 2, P values were calculated using the statistical analysis of two-way ANOVA (Dunnett's multiple comparisons test); * indicates P<0.05; ns indicates no statistical difference. In FIGS. 3 to 8, data are represented as mean±standard deviation. P values were calculated using one-way ANOVA; * indicates P<0.05; ** indicates P<0.01; *** indicates P<0.001.

C[C@H](CCCC(C)(C)O)[C@H]1CC[C@@]2(C)C3=C(CC[C@]12C)[C@@]1(C)CC[C@H](O)C(C)(C)[C@@H]1CC3 [compound 68, (1R,3aR,5aR,7S,9aS,11aR)-1-[(2R)-6-hydroxy-6-methylheptan-2-yl]-3a,6,6,9a,11a-pentamethyl-2,3,3a,4,5,5a,6,7,8,9,9a,10,11,11a-tetradecahydro-1H-cyclopenta[1,2-a]phenanthren-7-ol]
significantly lower: AMLN diet-induced weight gain (vs AMLN diet vehicle control)
significantly reduced: alanine aminotransferase (ALT) in serum | aspartate aminotransferase (AST) in serum | total liver cholesterol levels | total liver triglyceride levels | total cholesterol levels in serum (vs control group) | total triglyceride levels in serum (vs control group)
